Test results: patent US20020165233A1, “Quinoxaline containing medicaments for post exposure prophylaxis of an HIV infection” (priority 1999, published 2002)
Entries after “also recorded” stand apart in the source; their conditions may differ.

Columns and labels:
RT-SHIV [1] = experiment: RT-SHIV proviral DNA in PBMC and LNMC (quantitative PCR); assay type: in vivo, rhesus monkeys; conditions: for RT-SHIV proviral DNA in LNMC: 8 w p.e.
Method: (§1) Nine rhesus monkeys (male, 2 years old, 2-3 kg) were seronegative for SIV, Simian T cell Leukemia Virus (STLV), B virus and Type D retroviruses. 15 mg/kg body weight of COMPOUND A was subcutaneously administered into animals twice a day (12 h interval) for 28 d. Animals were divided into three groups. All animals were intravenously administered with 100 TCID50 of RT-SHIV The first group consisted of three animals treated with COMPOUND A from 8 h post exposure for 28 d. The second group of animals was treated with COMPOUND A from 24 h post exposure for 28 d. The third group (control) received the solvent that was used to dissolve COMPOUND A (PEG400:glycerol:water=[…]) from 8 h post exposure for 28 d.
(§2) Blood was collected from all the animals either just before or 2 h after the drug administration on 0, 3, 7, 10, 14, 21, 29 d post exposure in order to check the drug concentration, otherwise in intervals of 2 to 8 weeks. Biopsy of inguinal lymph nodes was conducted on 17 d or 18 d and 8 weeks post exposure in two animals per group. Cerebrospinal fluid (CSF) was collected from the animals just before biopsy.
T-SHIV DNA Amount in Peripheral Blood Mononuclear Cells (PBMC) and Lymph Node Cells (LNC):
PBMC were separated by Ficoll-Hypaque gradient centrifugation. Cellular DNA was purified from 1×10^6 cells with a commercial DNA purification kit (Qiagen). Gag sequence of viral DNA was PCR amplified with the primers SG05i and SG06i. Nested PCR amplification with two sets of primers, i.e. F34C (nt. 9065 to 9082)(5′-CCTACCTACAATATGGGT-3′) and F35C (nt. 9800 to 9778)(5′-[…]-3′), the second primers: N3 (nt. 9182 to 9201)(5′-GMGATGGATACTCGCAATC-3′) and N4, (nt. 9552 to 9533)(5′-TMTCCTGCCAATCTGGTAT-3′) was performed to detect one copy per 100,000 cells. Detection and quantitative determination of the viral DNA copy number was conducted as described for plasma viral load. The cell numbers of PBMC and LNC were estimated by imaging analysis of cyber green-stained chromosomal DNA separated by agarose gel electrophoresis.
The detection limit was 1 copy DNA per 100,000 cells. In contrast to the untreated animals, the proviral DNA levels were very low in the treated groups.

RT-SHIV [2] = experiment: Quantitative virus isolation (QVI) from PBMC co-cultured with C8166 and viral RNA PCR of culture supernatant; assay type: in vivo, rhesus monkeys; parameters: key to viral RNA PCR of QVI culture supernatant: +=positive; −=negative; conditions: animal #1, 15 mg/kg s.c. b.i.d. 8h thru 28 d post exp
Method: as §1, §2
Viral RNA was detected from 7 or 10 d post exposure up to 40 weeks post exposure in all plasma specimen from two animals (FIG. 2). […] While in two animals plasma viral RNA levels persisted around 10^5 copy/ml after a moderate reduction occurred at 4 weeks post exposure, viral RNA levels in one animal declined to about 10^3 copy/ml after 15 weeks post exposure (FIG. 2). The RT-SHIV infection in PIBMC was monitored by quantitative virus isolation (QVI) and quantitative PCR assay of proviral DNA. Serially diluted PBMC were co-cultured with C8166 to determine the minimal PBMC cell number to provoke a productive infection of C8166 cells. The number from the QVI test indicates infectious cells per one million PBMC. QVI results were consistent with plasma viral RNA levels. The numbers indicates the results of QVI. A + or − on the right indicates results of viral RNA PCR assay for the detection of virus in culture supernatant. +=positive, −=negative.

Structure (SMILES): CC[C@H]1C(=O)Nc2ccc(F)cc2N1C(=O)OC(C)C [Compound A, (3S)-ethyl-6-fluoro-4-isopropyloxycarbonyl-3,4-dihydroquinoxalin-2(1H)-one]
- RT-SHIV proviral DNA in PBMC (RT-SHIV [1]; animal #1, treated 8h thru 28 dpi, 2 w p.e.): 0 viral DNA copies/100,000 cells
- RT-SHIV proviral DNA in PBMC (RT-SHIV [1]; animal #1, treated 8h thru 28 dpi, 4 w p.e.): 0 viral DNA copies/100,000 cells
- RT-SHIV proviral DNA in PBMC (RT-SHIV [1]; animal #1, treated 8h thru 28 dpi, 15 w p.e.): 1 viral DNA copies/100,000 cells
- RT-SHIV proviral DNA in PBMC (RT-SHIV [1]; animal #1, treated 8h thru 28 dpi, 40 w p.e.): 0 viral DNA copies/100,000 cells
- RT-SHIV proviral DNA in PBMC (RT-SHIV [1]; animal #1, treated 8h thru 28 dpi, 50 w p.e.): 0 viral DNA copies/100,000 cells
- RT-SHIV proviral DNA in PBMC (RT-SHIV [1]; animal #3, treated 24 h thru 28 d pi, 2 w p.e.): 0 viral DNA copies/100,000 cells
- RT-SHIV proviral DNA in PBMC (RT-SHIV [1]; animal #3, treated 24 h thru 28 d pi, 4 w p.e.): 0 viral DNA copies/100,000 cells
- RT-SHIV proviral DNA in PBMC (RT-SHIV [1]; animal #3, treated 24 h thru 28 d pi, 15 w p.e.): 16 viral DNA copies/100,000 cells
- RT-SHIV proviral DNA in PBMC (RT-SHIV [1]; animal #3, treated 24 h thru 28 d pi, 40 w p.e.): 0 viral DNA copies/100,000 cells
- RT-SHIV proviral DNA in PBMC (RT-SHIV [1]; animal #3, treated 24 h thru 28 d pi, 50 w p.e.): 2 viral DNA copies/100,000 cells
- RT-SHIV proviral DNA in PBMC (RT-SHIV [1]; animal #4, treated 24 h thru 28 d pi, 2 w p.e.): 0 viral DNA copies/100,000 cells
- RT-SHIV proviral DNA in PBMC (RT-SHIV [1]; animal #4, treated 24 h thru 28 d pi, 4 w p.e.): 0 viral DNA copies/100,000 cells
- RT-SHIV proviral DNA in LNMC (RT-SHIV [1]; animal #4, treated 24 h thru 28 d pi): 1 viral DNA copies/100,000 cells
- RT-SHIV proviral DNA in PBMC (RT-SHIV [1]; animal #4, treated 24 h thru 28 d pi, 15 w p.e.): 0 viral DNA copies/100,000 cells
- RT-SHIV proviral DNA in PBMC (RT-SHIV [1]; animal #4, treated 24 h thru 28 d pi, 40 w p.e.): 0 viral DNA copies/100,000 cells
- RT-SHIV proviral DNA in PBMC (RT-SHIV [1]; animal #4, treated 24 h thru 28 d pi, 50 w p.e.): 0 viral DNA copies/100,000 cells
- RT-SHIV proviral DNA in PBMC (RT-SHIV [1]; animal #5, treated 8h thru 28 dpi, 2 w p.e.): 0 viral DNA copies/100,000 cells
- RT-SHIV proviral DNA in PBMC (RT-SHIV [1]; animal #5, treated 8h thru 28 dpi, 4 w p.e.): 0 viral DNA copies/100,000 cells
- RT-SHIV proviral DNA in LNMC (RT-SHIV [1]; animal #5, treated 8h thru 28 dpi): 2 viral DNA copies/100,000 cells
- RT-SHIV proviral DNA in PBMC (RT-SHIV [1]; animal #5, treated 8h thru 28 dpi, 15 w p.e.): 0 viral DNA copies/100,000 cells
- RT-SHIV proviral DNA in PBMC (RT-SHIV [1]; animal #5, treated 8h thru 28 dpi, 40 w p.e.): 0 viral DNA copies/100,000 cells
- RT-SHIV proviral DNA in PBMC (RT-SHIV [1]; animal #5, treated 8h thru 28 dpi, 50 w p.e.): 0 viral DNA copies/100,000 cells
- RT-SHIV proviral DNA in PBMC (RT-SHIV [1]; animal #10, treated 8h thru 28 dpi, 2 w p.e.): 0 viral DNA copies/100,000 cells
- RT-SHIV proviral DNA in PBMC (RT-SHIV [1]; animal #10, treated 8h thru 28 dpi, 4 w p.e.): 0 viral DNA copies/100,000 cells
- RT-SHIV proviral DNA in PBMC (RT-SHIV [1]; animal #10, treated 8h thru 28 dpi, 15 w p.e.): 7 viral DNA copies/100,000 cells
- RT-SHIV proviral DNA in PBMC (RT-SHIV [1]; animal #10, treated 8h thru 28 dpi, 40 w p.e.): 1 viral DNA copies/100,000 cells
- RT-SHIV proviral DNA in PBMC (RT-SHIV [1]; animal #10, treated 8h thru 28 dpi, 50 w p.e.): 5 viral DNA copies/100,000 cells
- RT-SHIV proviral DNA in PBMC (RT-SHIV [1]; animal #11, treated 24 h thru 28 d pi, 2 w p.e.): 0 viral DNA copies/100,000 cells
- RT-SHIV proviral DNA in PBMC (RT-SHIV [1]; animal #11, treated 24 h thru 28 d pi, 4 w p.e.): 0 viral DNA copies/100,000 cells
- RT-SHIV proviral DNA in PBMC (RT-SHIV [1]; animal #11, treated 24 h thru 28 d pi, 15 w p.e.): 1 viral DNA copies/100,000 cells
- RT-SHIV proviral DNA in PBMC (RT-SHIV [1]; animal #11, treated 24 h thru 28 d pi, 40 w p.e.): 0 viral DNA copies/100,000 cells
- RT-SHIV proviral DNA in PBMC (RT-SHIV [1]; animal #11, treated 24 h thru 28 d pi, 50 w p.e.): 0 viral DNA copies/100,000 cells
- proviral DNA levels (persistent infection) in treated groups relative to untreated (RT-SHIV [1]; treated groups versus untreated animals): very low; also recorded: far lower level of persistent infection
- viral RNA PCR of QVI culture supernatant (RT-SHIV [2]; week 2 post exp.): −/−
- Quantitative virus isolation (QVI) (RT-SHIV [2]; week 6 post exp.): 4 infectious cells per one million PBMC
- viral RNA PCR of QVI culture supernatant (RT-SHIV [2]; week 6 post exp.): +
- Quantitative virus isolation (QVI) (RT-SHIV [2]; week 8 post exp.): 16 infectious cells per one million PBMC
